According to PubChem BioAssay AID256 (DTP/NCI, 2004):
Several values for one entry are separate records, joined by “and”; a condition that tells them apart may be missing. Equal values may be shown once. Inconclusive results and toxic doses are left out.

Test system: CD2F1 mice, L1210 leukemia ip, survival T/C
Assay: NCI In Vivo Anticancer Drug Screen. Data for tumor model L1210 Leukemia (intraperitoneal) in CD2F1 (CDF1) mice
Conditions: higher = longer survival
Procedure, shortened: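 Each value reflects a quotient of treated over vehicle control outcomes in mice with a transplanted tumor.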

[1] = endpoint: mean survival time, dose: 50.0 mg/kg/injection, schedule: Q01DX009 (ip), vehicle: saline with Tween-80
[2] = endpoint: mean survival time, dose: 200.0 mg/kg/injection, schedule: Q01DX009 (ip), vehicle: saline with Tween-80

Cc1c2ccncc2c(C)c2c1[nH]c1ccccc12
T/C (endpoint: mean survival time, dose: 2.0 mg/kg/injection, schedule: Q01DX009 (ip), vehicle: saline with Tween-80): 113 % of control and 114 % of control and 105 % of control | T/C (endpoint: mean survival time, dose: 3.13 mg/kg/injection, schedule: Q01DX009 (ip), vehicle: water): 119 % of control | T/C (endpoint: mean survival time, dose: 4.0 mg/kg/injection, schedule: Q01DX009 (ip), vehicle: saline with Tween-80): 122 % of control and 124 % of control | T/C (endpoint: mean survival time, dose: 6.25 mg/kg/injection, schedule: Q01DX009 (ip), vehicle: other): 157 % of control | T/C (endpoint: mean survival time, dose: 6.25 mg/kg/injection, schedule: Q01DX009 (ip), vehicle: water): 151 % of control | T/C (endpoint: mean survival time, dose: 6.25 mg/kg/injection, schedule: Q01DX009 (oral), vehicle: other): 116 % of control | T/C (endpoint: mean survival time, dose: 6.25 mg/kg/injection, schedule: Q01DX009 (oral), vehicle: saline): 117 % of control | T/C (endpoint: mean survival time, dose: 6.25 mg/kg/injection, schedule: Q01DX009 (oral), vehicle: water): 123 % of control | T/C (endpoint: mean survival time, dose: 6.25 mg/kg/injection, schedule: Q04DX003 (ip), vehicle: other): 112 % of control | T/C (endpoint: mean survival time, dose: 6.25 mg/kg/injection, schedule: Q04DX003 (ip), vehicle: water): 108 % of control | T/C (endpoint: mean survival time, dose: 10.0 mg/kg/injection, schedule: Q01DX001 (ip), vehicle: water): 104 % of control | T/C (endpoint: mean survival time, dose: 10.0 mg/kg/injection, schedule: Q01DX009 (ip), vehicle: saline with Tween-80): 153 % of control | T/C (endpoint: mean survival time, dose: 10.0 mg/kg/injection, schedule: Q04DX003 (ip), vehicle: saline with Tween-80): 123 % of control | T/C (endpoint: mean survival time, dose: 12.5 mg/kg/injection, schedule: Q01DX009 (ip), vehicle: other): 198 % of control | T/C (endpoint: mean survival time, dose: 12.5 mg/kg/injection, schedule: Q01DX009 (ip), vehicle: saline): 180 % of control | T/C (endpoint: mean survival time, dose: 12.5 mg/kg/injection, schedule: Q01DX009 (ip), vehicle: water): 208 % of control | T/C (endpoint: mean survival time, dose: 12.5 mg/kg/injection, schedule: Q01DX009 (oral), vehicle: saline): 109 % of control | T/C (endpoint: mean survival time, dose: 12.5 mg/kg/injection, schedule: Q04DX003 (ip), vehicle: distilled water + Tween-80): 111 % of control | T/C (endpoint: mean survival time, dose: 12.5 mg/kg/injection, schedule: Q04DX003 (ip), vehicle: saline with Tween-80): 123 % of control | T/C (endpoint: mean survival time, dose: 12.5 mg/kg/injection, schedule: Q04DX003 (ip), vehicle: water): 122 % of control and 124 % of control | T/C (endpoint: mean survival time, dose: 12.5 mg/kg/injection, schedule: Q04DX003 (oral), vehicle: other): 103 % of control and 108 % of control | T/C (endpoint: mean survival time, dose: 12.5 mg/kg/injection, schedule: Q04DX003 (oral), vehicle: saline): 113 % of control and 107 % of control | T/C (endpoint: mean survival time, dose: 12.5 mg/kg/injection, schedule: Q04DX003 (oral), vehicle: water): 114 % of control and 109 % of control | T/C (endpoint: mean survival time, dose: 20.0 mg/kg/injection, schedule: Q01DX001 (ip), vehicle: water): 104 % of control | T/C (endpoint: mean survival time, dose: 20.0 mg/kg/injection, schedule: Q01DX009 (ip), vehicle: saline with Tween-80): 188 % of control and 205 % of control | T/C (endpoint: mean survival time, dose: 20.0 mg/kg/injection, schedule: Q04DX003 (ip), vehicle: saline with Tween-80): 157 % of control | T/C (endpoint: mean survival time, dose: 25.0 mg/kg/injection, schedule: Q01DX009 (ip), vehicle: other): 118 % of control | T/C (endpoint: mean survival time, dose: 25.0 mg/kg/injection, schedule: Q01DX009 (ip), vehicle: saline): 218 % of control | T/C (endpoint: mean survival time, dose: 25.0 mg/kg/injection, schedule: Q01DX009 (ip), vehicle: water): 100 % of control | T/C (endpoint: mean survival time, dose: 25.0 mg/kg/injection, schedule: Q01DX009 (oral), vehicle: other): 163 % of control | T/C (endpoint: mean survival time, dose: 25.0 mg/kg/injection, schedule: Q01DX009 (oral), vehicle: water): 159 % of control | T/C (endpoint: mean survival time, dose: 25.0 mg/kg/injection, schedule: Q04DX003 (ip), vehicle: distilled water + Tween-80): 121 % of control | T/C (endpoint: mean survival time, dose: 25.0 mg/kg/injection, schedule: Q04DX003 (ip), vehicle: saline): 156 % of control | T/C (endpoint: mean survival time, dose: 25.0 mg/kg/injection, schedule: Q04DX003 (ip), vehicle: water): 157 % of control and 190 % of control | T/C (endpoint: mean survival time, dose: 25.0 mg/kg/injection, schedule: Q04DX003 (oral), vehicle: other): 116 % of control | T/C (endpoint: mean survival time, dose: 25.0 mg/kg/injection, schedule: Q04DX003 (oral), vehicle: saline): 116 % of control and 118 % of control | T/C (endpoint: mean survival time, dose: 25.0 mg/kg/injection, schedule: Q04DX003 (oral), vehicle: water): 116 % of control | T/C (endpoint: mean survival time, dose: 32.0 mg/kg/injection, schedule: Q01DX009 (ip), vehicle: saline with Tween-80): 182 % of control | T/C (endpoint: mean survival time, dose: 40.0 mg/kg/injection, schedule: Q01DX009 (ip), vehicle: saline with Tween-80): 153 % of control | T/C (endpoint: mean survival time, dose: 40.0 mg/kg/injection, schedule: Q04DX003 (ip), vehicle: saline with Tween-80): 182 % of control and 202 % of control | T/C (endpoint: mean survival time, dose: 50.0 mg/kg/injection, schedule: Q01DX009 (ip), vehicle: other): 92 % of control | T/C (endpoint: mean survival time, dose: 50.0 mg/kg/injection, schedule: Q01DX009 (ip), vehicle: saline): 185 % of control | T/C (endpoint: mean survival time, dose: 50.0 mg/kg/injection, schedule: Q01DX009 (ip), vehicle: water): 87 % of control | T/C (endpoint: mean survival time, dose: 50.0 mg/kg/injection, schedule: Q01DX009 (oral), vehicle: saline): 152 % of control | T/C (endpoint: mean survival time, dose: 50.0 mg/kg/injection, schedule: Q01DX009 (oral), vehicle: water): 107 % of control | T/C (endpoint: mean survival time, dose: 50.0 mg/kg/injection, schedule: Q04DX003 (ip), vehicle: distilled water + Tween-80): 156 % of control | T/C (endpoint: mean survival time, dose: 50.0 mg/kg/injection, schedule: Q04DX003 (ip), vehicle: saline with Tween-80): 119 % of control | T/C (endpoint: mean survival time, dose: 50.0 mg/kg/injection, schedule: Q04DX003 (ip), vehicle: saline): 177 % of control | T/C (endpoint: mean survival time, dose: 50.0 mg/kg/injection, schedule: Q04DX003 (ip), vehicle: water): 186 % of control | T/C (endpoint: mean survival time, dose: 50.0 mg/kg/injection, schedule: Q04DX003 (oral), vehicle: other): 153 % of control | T/C (endpoint: mean survival time, dose: 50.0 mg/kg/injection, schedule: Q04DX003 (oral), vehicle: saline): 167 % of control | T/C (endpoint: mean survival time, dose: 50.0 mg/kg/injection, schedule: Q04DX003 (oral), vehicle: water): 152 % of control and 158 % of control | T/C (endpoint: mean survival time, dose: 64.0 mg/kg/injection, schedule: Q01DX009 (ip), vehicle: saline with Tween-80): 120 % of control and 102 % of control and 107 % of control | T/C (endpoint: mean survival time, dose: 80.0 mg/kg/injection, schedule: Q01DX001 (ip), vehicle: water): 162 % of control | T/C (endpoint: mean survival time, dose: 100.0 mg/kg/injection, schedule: Q01DX001 (ip), vehicle: other): 205 % of control | T/C (endpoint: mean survival time, dose: 100.0 mg/kg/injection, schedule: Q01DX009 (oral), vehicle: saline): 94 % of control | T/C (endpoint: mean survival time, dose: 100.0 mg/kg/injection, schedule: Q04DX003 (ip), vehicle: distilled water + Tween-80): 163 % of control and 177 % of control | T/C (endpoint: mean survival time, dose: 100.0 mg/kg/injection, schedule: Q04DX003 (ip), vehicle: saline): 216 % of control | T/C (endpoint: mean survival time, dose: 100.0 mg/kg/injection, schedule: Q04DX003 (oral), vehicle: saline): 163 % of control and 179 % of control | T/C (endpoint: mean survival time, dose: 200.0 mg/kg/injection, schedule: Q01DX001 (ip), vehicle: other): 224 % of control | T/C (endpoint: mean survival time, dose: 200.0 mg/kg/injection, schedule: Q04DX003 (ip), vehicle: distilled water + Tween-80): 113 % of control and 104 % of control | T/C (endpoint: mean survival time, dose: 200.0 mg/kg/injection, schedule: Q04DX003 (oral), vehicle: other): 113 % of control | T/C (endpoint: mean survival time, dose: 200.0 mg/kg/injection, schedule: Q04DX003 (oral), vehicle: saline): 122 % of control and 102 % of control | T/C (endpoint: mean survival time, dose: 400.0 mg/kg/injection, schedule: Q01DX001 (ip), vehicle: other): 186 % of control | T/C (endpoint: mean survival time, dose: 400.0 mg/kg/injection, schedule: Q04DX003 (oral), vehicle: other): 96 % of control | T/C (endpoint: median survival time, dose: 10.0 mg/kg/injection, schedule: Q01DX001 (ip), vehicle: water): 106 % of control | T/C (endpoint: median survival time, dose: 20.0 mg/kg/injection, schedule: Q01DX001 (ip), vehicle: water): 117 % of control | T/C (endpoint: median survival time, dose: 80.0 mg/kg/injection, schedule: Q01DX001 (ip), vehicle: water): 153 % of control

CC(CC=O)CCCC(C)(C)O (centres undefined)
T/C (endpoint: mean survival time, dose: 100.0 mg/kg/injection, schedule: Q04DX003 (ip), vehicle: saline with Tween-80): 103 % of control | T/C (endpoint: mean survival time, dose: 200.0 mg/kg/injection, schedule: Q04DX003 (ip), vehicle: saline with Tween-80): 95 % of control | T/C (endpoint: mean survival time, dose: 400.0 mg/kg/injection, schedule: Q04DX003 (ip), vehicle: saline with Tween-80): 98 % of control

COc1ccc2c(OC)cccc2c1
T/C (endpoint: mean survival time, dose: 100.0 mg/kg/injection, schedule: Q04DX003 (ip), vehicle: other): 102 % of control | T/C (endpoint: mean survival time, dose: 200.0 mg/kg/injection, schedule: Q04DX003 (ip), vehicle: other): 112 % of control | T/C (endpoint: mean survival time, dose: 400.0 mg/kg/injection, schedule: Q04DX003 (ip), vehicle: other): 101 % of control

Cc1cc(O)c(N=Nc2ccc(Br)cc2)cc1C
T/C [1]: 97 % of control | T/C (endpoint: mean survival time, dose: 100.0 mg/kg/injection, schedule: Q01DX009 (ip), vehicle: saline with Tween-80): 93 % of control | T/C [2]: 97 % of control

COc1cccc(C(=O)CC(O)(C(F)(F)F)C(F)(F)F)c1
T/C (endpoint: mean survival time, dose: 100.0 mg/kg/injection, schedule: Q01DX009 (ip), vehicle: other): 101 % of control | T/C (endpoint: mean survival time, dose: 200.0 mg/kg/injection, schedule: Q01DX009 (ip), vehicle: other): 97 % of control | T/C (endpoint: mean survival time, dose: 400.0 mg/kg/injection, schedule: Q01DX009 (ip), vehicle: other): 101 % of control

[Cl][Pt][Cl].c1ccc2[nH]c(C3CCCC[N-]3)nc2c1 (centres undefined)
T/C (endpoint: mean survival time, dose: 12.5 mg/kg/injection, schedule: Q01DX009 (ip), vehicle: saline with Tween-80): 93 % of control | T/C (endpoint: mean survival time, dose: 25.0 mg/kg/injection, schedule: Q01DX009 (ip), vehicle: saline with Tween-80): 98 % of control | T/C [1]: 94 % of control | T/C [2]: 91 % of control
